{"source": "patent US12466856B2", "about": "“Echinocandin analogues and preparation method therefor” (SHANGHAI SENHUI MEDICINE CO., LTD., priority 2019, dated 2025)", "key": {"[1]": {"tested_on": "Candida albicans ATCC 90029", "test": "MIC assay (CLSI M27-A3), Candida albicans ATCC 90029", "format": "cell-based", "conditions": "Candida albicans, read-out: MIC, Candida albicans ATCC 90029", "procedure": "(§1) After a test compound was serially diluted, an MIC (minimum inhibitory concentration) assay was performed on the standard Candida strain and an MEC (minimum effective concentration) assay on the standard Aspergillus strain. The MIC assay was performed according to the guidelines of the Clinical and Laboratory Standards Institute (CLSI M27-A3) and the MEC assay according to the guidelines of the Clinical and Laboratory Standards Institute (CLSI M38-A2).\n(§2) The frozen strain was passaged at least twice, and a single colony was picked and resuspended in normal saline or sterile water in a tube. The suspension was vortexed and adjusted to 0.5 McF (1×10^6 to 5×10^6 CFU/mL) using a spectrophotometer at wavelength 530 nm. The suspension was 50-fold diluted with normal saline and then 20-fold diluted with 1×RPMI 1640 broth (1×10^3 to 5×10^3 CFU/mL). 10 μL of the suspension was applied to an SDA plate for colony counting, with a range from about 10 to 50 single colonies.\n(§3) At this time, the bacterium concentration in each well should be 0.5×10^3 to 2.5×10^3 CFU/mL.\n(§4) For echinocandin drugs, Aspergillus was incubated at 28° C. for 21-26 h, and then the MEC results were read.\n(§5) Yeast-type fungi: A disposable sealing film was applied to the 96-well plate, and the mixture was well mixed by shaking. Observation was performed through a plate reader with the naked eye. Comparisons were made to the growth control, and the minimum compound concentration corresponding to ≥50% growth inhibition was defined as MIC. Pictures were taken and saved using an automatic plate reader."}, "[2]": {"tested_on": "Candida glabrata ATCC 15126", "test": "MIC assay (CLSI M27-A3), Candida glabrata ATCC 15126", "format": "cell-based", "conditions": "Nakaseomyces glabratus, read-out: MIC, Candida glabrata ATCC 15126", "procedure": "as §1, §2, §3, §4, §5"}, "[3]": {"tested_on": "Candida parapsilosis ATCC 22019", "test": "MIC assay (CLSI M27-A3), Candida parapsilosis ATCC 22019", "format": "cell-based", "conditions": "Lodderomyces parapsilosis, ATCC22019, 24 h, read-out: MIC, Candida parapsilosis ATCC 22019", "procedure": "as §1, §2, §3, §4, §5"}, "[4]": {"tested_on": "Candida krusei ATCC 6258", "test": "MIC assay (CLSI M27-A3), Candida krusei ATCC 6258", "format": "cell-based", "conditions": "Pichia kudriavzevii, ATCC6258, 24 h, read-out: MIC, Candida krusei ATCC 6258", "procedure": "as §1, §2, §3, §4, §5"}, "[5]": {"tested_on": "Meyerozyma guilliermondii ATCC 6260", "test": "MIC assay (CLSI M27-A3), Meyerozyma guilliermondii ATCC 6260", "format": "cell-based", "conditions": "Meyerozyma guilliermondii, read-out: MIC, Meyerozyma guilliermondii ATCC 6260", "procedure": "as §1, §2, §3, §4, §5"}, "[6]": {"tested_on": "Candida tropicalis ATCC 750", "test": "MIC assay (CLSI M27-A3), Candida tropicalis ATCC 750", "format": "cell-based", "conditions": "Candida tropicalis, read-out: MIC, Candida tropicalis ATCC 750", "procedure": "as §1, §2, §3, §4, §5"}, "[7]": {"tested_on": "Aspergillus flavus ATCC 28539", "test": "MEC assay (CLSI M38-A2), Aspergillus flavus ATCC 28539", "format": "cell-based", "conditions": "first batch; 28° C., 21-26 h", "procedure": "The MIC assay was performed according to the guidelines of the Clinical and Laboratory Standards Institute (CLSI M27-A3) and the MEC assay according to the guidelines of the Clinical and Laboratory Standards Institute (CLSI M38-A2).\nColonies on the plate were covered with about 1 mL of 0.85% normal saline or sterile water (polysorbate 20 was added at a final concentration of 0.1%-0.01%). […] The homogeneous upper layer of the suspension was transferred to a new sterile tube, which was then sealed and vortexed for 15 s (be careful as the suspension may produce an aerosol when the cover is removed). The concentration of the suspension was adjusted until an OD value of 0.09-0.13 was achieved using a spectrophotometer at 530 nm. […] 100 μL of sample was added to each well of the 96-well plate within 2 h after dilution (the final spore concentration in the susceptibility testing plate was at 0.4×10^4 to 5×10^4 CFU/mL).\nAspergillus: For echinocandin drugs, comparisons were made to the growth control under a plate reader, and the minimum drug concentration that could cause the hyphae to form small, round, compact hyphal particles was defined as MEC. For accurate determination of MEC values, the plate must not be vortexed before reading."}, "[8]": {"tested_on": "Candida albicans ATCC 90028", "test": "MIC assay (CLSI M27-A3), Candida albicans ATCC 90028", "format": "cell-based", "conditions": "Candida albicans, ATCC90028, second batch", "procedure": "as §1, §2\nAt this time, the bacterium concentration in each well should be 0.5×10^3 to 2.5×10^3 CFU/mL. […]\nas §5"}, "[9]": {"tested_on": "Candida albicans ATCC 44858", "test": "MIC assay (CLSI M27-A3), Candida albicans ATCC 44858", "format": "cell-based", "conditions": "Candida albicans, ATCC44858; second batch; read-out: MIC, Candida albicans ATCC 44858", "procedure": "as §1, §2, §3, §4, §5"}, "[10]": {"tested_on": "Candida glabrata ATCC 36583", "test": "MIC assay (CLSI M27-A3), Candida glabrata ATCC 36583", "format": "cell-based", "conditions": "Nakaseomyces glabratus, ATCC36583; second batch; read-out: MIC, Candida glabrata ATCC 36583", "procedure": "as §1, §2, §3, §4, §5"}, "[11]": {"tested_on": "Candida albicans (azole drug-resistant strain) R357", "test": "MIC assay (CLSI M27-A3), Candida albicans azole drug-resistant strain R357", "format": "cell-based", "conditions": "Candida albicans; second batch; read-out: MIC, Candida albicans (azole drug-resistant strain) R357", "procedure": "as §1, §2, §3, §4, §5"}, "[12]": {"tested_on": "Candida albicans (azole drug-resistant strain) R358", "test": "MIC assay (CLSI M27-A3), Candida albicans azole drug-resistant strain R358", "format": "cell-based", "conditions": "Candida albicans; second batch; read-out: MIC, Candida albicans (azole drug-resistant strain) R358", "procedure": "as §1, §2, §3, §4, §5"}, "[13]": {"tested_on": "Candida tropicalis (amphotericin-resistant strain) ATCC 200956", "test": "microbe, parasite or virus in culture", "format": "cell-based", "conditions": "Candida tropicalis, ATCC200956, read-out: MIC, Candida tropicalis (amphotericin-resistant strain) ATCC 200956", "procedure": "as §1, §2, §3, §4, §5"}, "[14]": {"test": "Plasma histamine assay after single intravenous injection in SD rats", "format": "in vivo", "conditions": "same dose (10 mg/kg), single intravenous injection, versus rezafungin acetate", "procedure": "(§6) 12 SD rats were divided into 2 groups of 6 (half are male and half female). […] The body weights were measured once before administration. Administration was performed by single intravenous injection for 20 min per animal. PK measurement was performed once before administration and 5 min, 30 min, 1 h, 4 h, 8 h, 24 h, 48 h, 72 h and 96 h after administration. A histamine assay was performed once before administration and 30 min, 4 h, 8 h and 24 h after administration."}, "[15]": {"test": "Pharmacokinetic study after single intravenous injection in SD rats", "format": "in vivo", "conditions": "10 mg/kg single intravenous injection", "procedure": "as §6"}, "[16]": {"conditions": "ATCC90029, first batch, 24 h, 35° C., ≥50% growth inhibition"}, "[17]": {"conditions": "ATCC6260, first batch, 24 h, 35° C."}, "[18]": {"conditions": "ATCC750, first batch, 24 h, 35° C."}}, "note": "Read-outs that look alike come from different tables or passages of the source. Starred links: 1 amine or outer side, 2 acyl side, 3 side chain; linkers in the order of their positions; H or OH if unused. Positions of bridges follow the written chain, without caps; N, C: chain ends. Non-standard residues stand in square brackets, D forms with d. Residues, ends and D or L forms follow the SMILES beside them. *: point of attachment. Orn(4R-OH,5R-OCH2CH2NMe3+) = C[N+](C)(C)CCO[C@@H](N[*:3])[C@H](O)C[C@H](N[*:1])C(=O)[*:2]; hTyr(3S-OH,4S-OH) = N[C@H](C(=O)O)[C@H](O)[C@@H](O)c1ccc(O)cc1; X1 = O=C(c1ccc(-c2ccc(-c3ccc(OCCCCCF)cc3)cc2)cc1)*; Pro(3S-OH,4S-Me) = C[C@H]1CN[C@H](C(=O)O)[C@H]1O; Hyp = O=C(O)[C@@H]1C[C@@H](O)CN1", "data": [{"smiles": "CCCCCOc1ccc(-c2ccc(-c3ccc(C(=O)N[C@H]4C[C@@H](O)[C@@H](OCC[N+]5(C)CCCCC5)NC(=O)[C@@H]5[C@@H](O)[C@@H](C)CN5C(=O)[C@H]([C@@H](C)O)NC(=O)[C@H]([C@H](O)[C@@H](O)c5ccc(O)cc5)NC(=O)[C@@H]5C[C@@H](O)CN5C(=O)[C@H]([C@@H](C)O)NC4=O)cc3)cc2)cc1", "note": "[Example 10]", "values": [{"measurement": "MIC", "setting": "[1]; [16]", "value": 0.25, "unit": "µg/mL"}, {"measurement": "MIC", "setting": "[2]; ATCC15126, first batch, 24 h, 35° C., ≥50% growth inhibition", "value": 0.5, "unit": "µg/mL"}, {"measurement": "MIC", "setting": "[3]", "value": 2, "unit": "µg/mL"}, {"measurement": "MIC", "setting": "[4]", "value": 0.5, "unit": "µg/mL"}, {"measurement": "MIC", "setting": "[5]; [17]", "value": 4, "unit": "µg/mL"}, {"measurement": "MIC", "setting": "[6]; [18]", "value": 0.031, "unit": "µg/mL"}, {"measurement": "MEC, Aspergillus flavus ATCC 28539", "setting": "[7]", "value": 0.031, "unit": "µg/mL"}]}, {"smiles": "CCCCCOc1ccc(-c2ccc(-c3ccc(C(=O)N[C@H]4C[C@@H](O)[C@@H](OC[C@H]5CCC[N+]5(C)C)NC(=O)[C@@H]5[C@@H](O)[C@@H](C)CN5C(=O)[C@H]([C@@H](C)O)NC(=O)[C@H]([C@H](O)[C@@H](O)c5ccc(O)cc5)NC(=O)[C@@H]5C[C@@H](O)CN5C(=O)[C@H]([C@@H](C)O)NC4=O)cc3)cc2)cc1", "note": "[Example 13]", "values": [{"measurement": "MIC", "setting": "[1]; [16]", "value": 0.031, "unit": "µg/mL"}, {"measurement": "MIC", "setting": "[3]", "value": 1, "unit": "µg/mL"}, {"measurement": "MIC", "setting": "[4]", "value": 0.047, "unit": "µg/mL"}, {"measurement": "MIC", "setting": "[5]; [17]", "value": 1, "unit": "µg/mL"}, {"measurement": "MIC", "setting": "[6]; [18]", "value": 0.016, "unit": "µg/mL"}, {"measurement": "MIC", "setting": "[8]; 24 h, 35° C., read-out: MIC, Candida albicans ATCC 90028", "value": 0.25, "unit": "µg/mL"}, {"measurement": "MIC", "setting": "[8]; + 50% human serum, read-out: MIC, Candida albicans + 50% human serum ATCC 90028", "value": 0.25, "unit": "µg/mL"}, {"measurement": "MIC", "setting": "[9]", "value": 0.25, "unit": "µg/mL"}, {"measurement": "MIC", "setting": "[10]", "value": 0.5, "unit": "µg/mL"}, {"measurement": "MIC", "setting": "[11]", "value": 0.5, "unit": "µg/mL"}, {"measurement": "MIC", "setting": "[12]", "value": 0.25, "unit": "µg/mL"}, {"measurement": "MIC", "setting": "[13]", "value": 0.25, "unit": "µg/mL"}, {"measurement": "ability to induce increases in the histamine level in rats", "setting": "[14]", "value": "significantly lower than that of rezafungin acetate"}, {"measurement": "MRTIV", "setting": "[15]; female SD rats", "value": 34.6, "unit": "h"}, {"measurement": "MRTIV", "setting": "[15]; male SD rats", "value": 37.1, "unit": "h"}]}, {"smiles": "C[C@@H](O)[C@@H]1NC(=O)[C@H]([C@H](O)[C@@H](O)c2ccc(O)cc2)NC(=O)[C@@H]2C[C@@H](O)CN2C(=O)[C@H]([C@@H](C)O)NC(=O)[C@@H](NC(=O)c2ccc(-c3ccc(-c4ccc(OCCCCCF)cc4)cc3)cc2)C[C@@H](O)[C@@H](OCC[N+](C)(C)C)NC(=O)[C@@H]2[C@@H](O)[C@@H](C)CN2C1=O", "note": "[Example 11] (X1-[Orn(4R-OH,5R-OCH2CH2NMe3+)]T[Hyp][hTyr(3S-OH,4S-OH)]T[Pro(3S-OH,4S-Me)]; lactam 1-C)", "values": [{"measurement": "MIC", "setting": "[1]; ATCC90029, 24 h", "value": 0.125, "unit": "µg/mL"}, {"measurement": "MIC", "setting": "[2]; ATCC15126, 24 h", "value": 0.5, "unit": "µg/mL"}, {"measurement": "MIC", "setting": "[3]", "value": 4, "unit": "µg/mL"}, {"measurement": "MIC", "setting": "[4]", "value": 0.5, "unit": "µg/mL"}, {"measurement": "MIC", "setting": "[5]; ATCC6260, 24 h", "value": 2, "unit": "µg/mL"}, {"measurement": "MIC", "setting": "[6]; ATCC750, 24 h", "value": 0.031, "unit": "µg/mL"}, {"measurement": "MEC, Aspergillus flavus ATCC 28539", "setting": "[7]", "value": 0.031, "unit": "µg/mL"}]}]}
